# Test results: patent US8778881B2 (priority 2004, dated 2014)
# Numbered stars: 1 amine (or outer) side, 2 acyl side, 3 side chain; on linkers, the order of the positions; unused ones are H or OH. Bridge positions count the residues as written; N and C are the ends. Square brackets hold non-standard residues; d marks the D form. Peptide text beside a SMILES is read from it. * marks the point of attachment. Orn(Me) = CN(CCC[C@H](N[*:1])C(=O)[*:2])[*:3]; Ala(2-furyl) = N[C@@H](Cc1ccco1)C(=O)O; Orn(iPr) = CC(C)NCCC[C@H](N)C(=O)O; 2Pal = N[C@@H](Cc1ccccn1)C(=O)O; 2Thi = N[C@@H](Cc1cccs1)C(=O)O; 3Thi = N[C@@H](Cc1ccsc1)C(=O)O; Aad = N[C@@H](CCCC(=O)O)C(=O)O; Orn = NCCC[C@H](N)C(=O)O; Dab = NCC[C@H](N)C(=O)O; NHCH2CH2OH = OCCN*; X4 = OCCOCCN*; NHOH = ON*
# Target: T1, human oxytocin (hOT) receptor (Homo sapiens, UniProt P30559)
# T1 construct: expressed in transfected cells
# T1 sequence (P30559 1-389): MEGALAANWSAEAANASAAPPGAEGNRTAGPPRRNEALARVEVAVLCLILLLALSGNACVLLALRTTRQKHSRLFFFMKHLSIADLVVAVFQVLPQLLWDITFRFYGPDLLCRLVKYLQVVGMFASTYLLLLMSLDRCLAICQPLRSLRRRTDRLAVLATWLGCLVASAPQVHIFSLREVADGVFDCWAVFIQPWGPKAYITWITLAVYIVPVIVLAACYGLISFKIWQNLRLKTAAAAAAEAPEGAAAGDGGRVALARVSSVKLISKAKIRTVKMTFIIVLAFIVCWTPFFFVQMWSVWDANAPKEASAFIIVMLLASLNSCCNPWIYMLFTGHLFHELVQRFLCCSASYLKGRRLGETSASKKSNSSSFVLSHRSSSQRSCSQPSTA
# Assay: luciferase-based transcriptional reporter assay expressing the human oxytocin (hOT) receptor, for selectivity
# Type: cell-based
# Conditions: not given
# Protocol: (§1) Agonist activity of compounds on the hV1a receptor was determined in a transcriptional reporter assay by transiently transfecting a hV1a receptor expression DNA into HEK-293 cells in concert with a reporter DNA containing intracellular calcium responsive promoter elements regulating expression of firefly luciferase. See Boss, V., Talpade, D. J., Murphy, T. J. J. Biol. Chem. 1996, May 3; 271(18), 10429-10432 for further guidance on this assay. […] To determine selectivity, compounds were tested in luciferase-based transcriptional reporter assays expressing the human oxytocin (hOT) receptor. Assays for other receptors (hV2, hV1b, rat V1a and rat V2) were also conducted.
# (§2) The EC50 value given is the geometric mean expressed in nanomol/L (nM). Selectivity values are given as EC50 ratios.
row,Compound,selectivity hOT/hV1a (class symbol)
1,CC[C@H](C)[C@@H]1NC(=O)[C@H](Cc2ccccc2)NC(=O)[C@@H](N)CSSC[C@@H](C(=O)N2CCC[C@H]2C(=O)N[C@@H](CCCN)C(=O)NCC(N)=O)NC(=O)[C@H](CC(N)=O)NC(=O)[C@H](CCCC(N)=O)NC1=O [Compound 9] (H-CFI[Aad](NH2)NCP[Orn]G-NH2; disulfide 1-6),+ (key: +: selective hV1a receptor agonist; EC50 hOT/hV1a ratio not determined due to very low agonist efficacy (<30% compared to AVP) at the hOT receptor)
2,CC[C@H](C)[C@@H]1NC(=O)[C@H](Cc2ccccn2)NC(=O)[C@@H](N)CSSC[C@@H](C(=O)N2CCC[C@H]2C(=O)N[C@@H](CCN)C(=O)NCC(N)=O)NC(=O)[C@H](CC(N)=O)NC(=O)[C@H](CCC(N)=O)NC1=O [Compound 17] (H-C[2Pal]IQNCP[Dab]G-NH2; disulfide 1-6),+ (key: +: selective hV1a receptor agonist; EC50 hOT/hV1a ratio not determined due to very low agonist efficacy (<30% compared to AVP) at the hOT receptor)

# Same assay, conditions: agonist efficacy at the hOT receptor compared to AVP; ratio not determined
row,Compound,selectivity hOT/hV1a (class symbol)
1,CC[C@H](C)[C@@H]1NC(=O)[C@H](Cc2ccccc2)NC(=O)[C@@H](N)CSSC[C@@H](C(=O)N2CCC[C@H]2C(=O)N[C@@H](CCCNC)C(=O)NCC(N)=O)NC(=O)[C@H](CC(N)=O)NC(=O)[C@H](CC(N)=O)NC1=O [Compound 46] (H-CFINNCP[Orn(Me)]G-NH2; disulfide 1-6; N-terminus and C-terminus assumed),+ (selective hV1a receptor agonist; EC50 hOT/hV1a ratio not determined due to very low agonist efficacy (<30% compared to AVP) at the hOT receptor)
2,CC[C@H](C)[C@@H]1NC(=O)[C@H](Cc2cccs2)NC(=O)[C@@H](N)CSSC[C@@H](C(=O)N2CCC[C@H]2C(=O)N[C@@H](CCCN)C(=O)NCC(N)=O)NC(=O)[C@H](CC(N)=O)NC(=O)[C@H](CC(N)=O)NC1=O [Compound 33] (H-C[2Thi]INNCP[Orn]G-NH2; disulfide 1-6; N-terminus and C-terminus assumed),+ (selective hV1a receptor agonist; EC50 hOT/hV1a ratio not determined due to very low agonist efficacy (<30% compared to AVP) at the hOT receptor)
3,CC[C@H](C)[C@@H]1NC(=O)[C@H](Cc2ccccc2)NC(=O)[C@@H](N)CSSC[C@@H](C(=O)N2CCC[C@H]2C(=O)N[C@@H](CCCN)C(=O)NCC(N)=O)NC(=O)[C@H](CC(N)=O)NC(=O)[C@H](CC(=O)NCCOCCO)NC1=O [Compound 29] (H-CFID(X4)NCP[Orn]G-NH2; disulfide 1-6; N-terminus and C-terminus assumed),+ (selective hV1a receptor agonist; EC50 hOT/hV1a ratio not determined due to very low agonist efficacy (<30% compared to AVP) at the hOT receptor)
4,CC[C@H](C)[C@@H]1NC(=O)[C@H](Cc2ccco2)NC(=O)[C@@H](N)CSSC[C@@H](C(=O)N2CCC[C@H]2C(=O)N[C@@H](CCCN)C(=O)NCC(N)=O)NC(=O)[C@H](CC(N)=O)NC(=O)[C@H](CC(N)=O)NC1=O [Compound 38] (H-C[Ala(2-furyl)]INNCP[Orn]G-NH2; disulfide 1-6; N-terminus and C-terminus assumed),+ (selective hV1a receptor agonist; EC50 hOT/hV1a ratio not determined due to very low agonist efficacy (<30% compared to AVP) at the hOT receptor)
5,CC[C@H](C)[C@@H]1NC(=O)[C@H](Cc2ccccc2)NC(=O)[C@@H](N)CSSC[C@@H](C(=O)N2CCC[C@H]2C(=O)N[C@@H](CCCN)C(=O)NCC(N)=O)NC(=O)[C@H](CC(N)=O)NC(=O)[C@H](CC(=O)NCCO)NC1=O [Compound 23] (H-CFID(NHCH2CH2OH)NCP[Orn]G-NH2; disulfide 1-6; N-terminus and C-terminus assumed),+ (selective hV1a receptor agonist; EC50 hOT/hV1a ratio not determined due to very low agonist efficacy (<30% compared to AVP) at the hOT receptor)
6,CC[C@H](C)[C@@H]1NC(=O)[C@H](Cc2ccccc2)NC(=O)[C@@H](N)CSSC[C@@H](C(=O)N2CCC[C@H]2C(=O)N[C@@H](CCCN)C(=O)NCC(N)=O)NC(=O)[C@H](CC(N)=O)NC(=O)[C@H](CCC(=O)NC)NC1=O [Compound 19] (H-CFIE(NHMe)NCP[Orn]G-NH2; disulfide 1-6; N-terminus and C-terminus assumed),+ (selective hV1a receptor agonist; EC50 hOT/hV1a ratio not determined due to very low agonist efficacy (<30% compared to AVP) at the hOT receptor)
7,CCNC(=O)C[C@@H]1NC(=O)[C@H]([C@@H](C)CC)NC(=O)[C@H](Cc2ccccc2)NC(=O)[C@@H](N)CSSC[C@@H](C(=O)N2CCC[C@H]2C(=O)N[C@@H](CCCN)C(=O)NCC(N)=O)NC(=O)[C@H](CC(N)=O)NC1=O [Compound 48] (H-CFID(NHEt)NCP[Orn]G-NH2; disulfide 1-6; N-terminus and C-terminus assumed),+ (selective hV1a receptor agonist; EC50 hOT/hV1a ratio not determined due to very low agonist efficacy (<30% compared to AVP) at the hOT receptor)
8,CC[C@H](C)[C@@H]1NC(=O)[C@H](Cc2ccccc2)NC(=O)[C@@H](N)CSSC[C@@H](C(=O)N2CCC[C@H]2C(=O)N[C@@H](CCCN)C(=O)NCC(N)=O)NC(=O)[C@H](CC(N)=O)NC(=O)[C@H](CCC(=O)NO)NC1=O [Compound 16] (H-CFIE(NHOH)NCP[Orn]G-NH2; disulfide 1-6; N-terminus and C-terminus assumed),+ (selective hV1a receptor agonist; EC50 hOT/hV1a ratio not determined due to very low agonist efficacy (<30% compared to AVP) at the hOT receptor)
9,CC[C@H](C)[C@@H]1NC(=O)[C@H](Cc2ccsc2)NC(=O)[C@@H](N)CSSC[C@@H](C(=O)N2CCC[C@H]2C(=O)N[C@@H](CCN)C(=O)NCC(N)=O)NC(=O)[C@H](CC(N)=O)NC(=O)[C@H](CC(N)=O)NC1=O [Compound 37] (H-C[3Thi]INNCP[Dab]G-NH2; disulfide 1-6; N-terminus and C-terminus assumed),+ (selective hV1a receptor agonist; EC50 hOT/hV1a ratio not determined due to very low agonist efficacy (<30% compared to AVP) at the hOT receptor)
10,CC[C@H](C)[C@@H]1NC(=O)[C@H](Cc2ccccc2)NC(=O)[C@@H](N)CSSC[C@@H](C(=O)N2CCC[C@H]2C(=O)N[C@@H](CCCN)C(=O)NCC(N)=O)NC(=O)[C@H](CC(N)=O)NC(=O)[C@H](CC(N)=O)NC1=O [Compound 30] (H-CFINNCP[Orn]G-NH2; disulfide 1-6; N-terminus and C-terminus assumed),+ (selective hV1a receptor agonist; EC50 hOT/hV1a ratio not determined due to very low agonist efficacy (<30% compared to AVP) at the hOT receptor)
11,CC[C@H](C)[C@@H]1NC(=O)[C@H](Cc2ccsc2)NC(=O)[C@@H](N)CSSC[C@@H](C(=O)N2CCC[C@H]2C(=O)N[C@@H](CCCN)C(=O)NCC(N)=O)NC(=O)[C@H](CC(N)=O)NC(=O)[C@H](CC(N)=O)NC1=O [Compound 35] (H-C[3Thi]INNCP[Orn]G-NH2; disulfide 1-6; N-terminus and C-terminus assumed),+ (selective hV1a receptor agonist; EC50 hOT/hV1a ratio not determined due to very low agonist efficacy (<30% compared to AVP) at the hOT receptor)

# Target: T2, hV1a receptor (Homo sapiens, UniProt P37288)
# T2 construct: expressed in transfected cells; host or cells: HEK-293 cells (transient transfection)
# Assay: hV1a receptor transcriptional reporter (luciferase) agonist assay in HEK-293 cells
# Type: cell-based
# Conditions: not given
# Protocol: as §1, §2
# T2 sequence (P37288 whole entry): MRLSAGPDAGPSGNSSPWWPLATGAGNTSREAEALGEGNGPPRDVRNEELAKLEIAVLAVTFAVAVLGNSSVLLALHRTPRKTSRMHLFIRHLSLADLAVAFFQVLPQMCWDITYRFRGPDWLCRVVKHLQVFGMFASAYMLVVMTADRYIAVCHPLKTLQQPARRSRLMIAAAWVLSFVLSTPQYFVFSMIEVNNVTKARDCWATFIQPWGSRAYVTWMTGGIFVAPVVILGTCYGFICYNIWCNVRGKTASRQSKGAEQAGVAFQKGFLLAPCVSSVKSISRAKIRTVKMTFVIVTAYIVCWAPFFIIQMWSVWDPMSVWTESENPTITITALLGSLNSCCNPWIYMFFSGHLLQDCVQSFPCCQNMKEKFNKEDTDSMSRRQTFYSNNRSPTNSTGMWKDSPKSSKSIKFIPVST
row,Compound,EC50 [nM]
1,"CC[C@H](C)[C@@H]1NC(=O)[C@H](Cc2ccccc2)NC(=O)[C@@H](N)CSSC[C@@H](C(=O)N2CCC[C@H]2C(=O)N[C@@H](CCCNC(C)C)C(=O)NCC(N)=O)NC(=O)[C@H](CC(N)=O)NC(=O)[C@H](CCCC(N)=O)NC1=O [Compound 1, [Phe^2, Hgn^4, Orn (i-Pr)^8]VT] (H-CFI[Aad](NH2)NCP[Orn(iPr)]G-NH2; disulfide 1-6; N-terminus assumed)",2.02

# Same assay, conditions: geometric mean; HEK-293 cells transiently transfected, 5 hours exposure, at least three independent experiments; read-out: EC50 hV1a receptor
row,EC50 [nM],Compound
1,2.36,"CCNC(=O)C[C@@H]1NC(=O)[C@H]([C@@H](C)CC)NC(=O)[C@H](Cc2ccccc2)NC(=O)[C@@H](N)CSSC[C@@H](C(=O)N2CCC[C@H]2C(=O)N[C@@H](CCN)C(=O)NCC(N)=O)NC(=O)[C@H](CC(N)=O)NC1=O [Compound 4, [Phe^2,Asn (Et)^4, Dbu^8]VT] (H-CFID(NHEt)NCP[Dab]G-NH2; disulfide 1-6)"

# Same assay, conditions: read-out: EC50 hV1a receptor
row,Compound,EC50 [nM]
1,CC[C@H](C)[C@@H]1NC(=O)[C@H](Cc2ccco2)NC(=O)[C@@H](N)CSSC[C@@H](C(=O)N2CCC[C@H]2C(=O)N[C@@H](CCCN)C(=O)NCC(N)=O)NC(=O)[C@H](CC(N)=O)NC(=O)[C@H](CCC(N)=O)NC1=O [Compound 32] (H-C[Ala(2-furyl)]IQNCP[Orn]G-NH2; disulfide 1-6),2.64
